Results reported in the supplement of paper PMC10307832.

Columns and labels:
Assay in all cases: relative viability (nuclei count vs DMSO), 5 days (fraction); higher = more cells survive
[1] = compound: C/C(=N\NC(=S)N1CCC1)/C2=CC=CC=N2 + COc1cc2c(Oc3ccc(NC(=O)C4(C(=O)Nc5ccc(F)cc5)CC4)cc3F)ccnc2cc1OCCCN1CCOCC1 [Foretinib] (partner 0.25 µM)
Procedure, shortened: (§1)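 Relative viability equals treated-well nuclei counts divided by vehicle-well nuclei counts. Counts came from 4× images of lung cancer cell lines grown in 1536-well plates for 5 days after pin-tool dosing on the day after seeding. Dosing used one drug alone or a fixed anchor-drug dose plus five library-drug doses (not always all listed) in √10 steps, and values are medians of duplicate plates.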

[2] = compound: C/C(=N\NC(=S)N1CCC1)/C2=CC=CC=N2 + Cc1nc(NC(=O)N2CCC[C@H]2C(N)=O)sc1-c1ccnc(C(C)(C)C(F)(F)F)c1 [Alpelisib] (partner 2 µM)
Procedure, shortened: as §1

[3] = compound: C/C(=N\NC(=S)N1CCC1)/C2=CC=CC=N2 + O=C(c1cc(Cc2n[nH]c(=O)c3ccccc23)ccc1F)N1CCN(C(=O)C2CC2)CC1 [Olaparib] (partner 8 µM)
Procedure, shortened: as §1

[4] = compound: C/C(=N\NC(=S)N1CCC1)/C2=CC=CC=N2 + Nc1nc2[nH]cc(CCc3ccc(C(=O)N[C@@H](CCC(=O)O)C(=O)O)cc3)c2c(=O)[nH]1 [Pemetrexed] (partner 0.2 µM)
Procedure, shortened: as §1

Cell Line	relative viability ([1]; first compound 0.05 µM)	relative viability ([1]; first compound 0.1581 µM)	relative viability ([1]; first compound 0.5 µM)	relative viability ([1]; first compound 1.581 µM)	relative viability ([1]; first compound 5 µM)	relative viability ([2]; first compound 0.05 µM)	relative viability ([2]; first compound 0.1581 µM)	relative viability ([2]; first compound 0.5 µM)	relative viability ([2]; first compound 1.581 µM)	relative viability ([2]; first compound 5 µM)	relative viability ([3]; first compound 0.05 µM)	relative viability ([3]; first compound 0.1581 µM)	relative viability ([3]; first compound 0.5 µM)	relative viability ([3]; first compound 1.581 µM)	relative viability ([3]; first compound 5 µM)	relative viability ([4]; first compound 0.05 µM)	relative viability ([4]; first compound 0.1581 µM)	relative viability ([4]; first compound 0.5 µM)	relative viability ([4]; first compound 1.581 µM)	relative viability ([4]; first compound 5 µM)
SW 1573	0.146	0.155	0.128	0.142	0.0856	0.107	0.155	0.169	0.1	0.0847	0.0806	0.0899	0.138	0.0631	0.0687	0.0863	0.149	0.169	0.0609	0.0817
NCI-H1651	0.136	0.142	0.127	0.0965	0.107	0.149	0.112	0.138	0.0797	0.0683	0.125	0.117	0.121	0.122	0.0747	0.137	0.111	0.0991	0.0716	0.0806
NCI-H2023	0.0821	0.0789	0.0763	0.0636	0.077	0.0758	0.0838	0.0704	0.0784	0.0669	0.0912	0.0578	0.0664	0.0644	0.0565	0.0924	0.0863	0.0863	0.0559	0.0883
COR-L 105	0.33	0.312	0.382	0.233	0.268	0.301	0.266	0.275	0.222	0.217	0.365	0.381	0.374	0.337	0.318	0.399	0.389	0.326	0.358	0.335
NCI-H1734	0.166	0.162	0.203	0.129	0.102	0.169	0.185	0.147	0.135	0.151	0.148	0.13	0.15	0.114	0.1	0.17	0.166	0.188	0.152	0.135
NCI-H3122	0.101	0.0817	0.0973	0.149	0.158	0.154	0.133	0.193	0.196	0.192	0.118	0.291	0.0987	0.145	0.142	0.0953	0.11	0.11	0.149	0.15
CAL-12T	0.184	0.21	0.146	0.161	0.138	0.148	0.146	0.126	0.127	0.121	0.16	0.149	0.185	0.171	0.131	0.14	0.132	0.173	0.143	0.122
HCC-78	0.488	0.451	0.367	0.237	0.235	0.257	0.252	0.177	0.153	0.158	0.523	0.379	0.32	0.249	0.211	0.96	0.872	0.854	0.84	0.863
NCI-H2085	0.322	0.373	0.296	0.269	0.253	0.288	0.27	0.314	0.282	0.272	0.307	0.25	0.293	0.281	0.278	0.248	0.264	0.237	0.178	0.244
